{"source": "ChEMBL document CHEMBL5696441", "about": "(Nat Chem Biol, 2011)", "key": {"[1]": {"target": "Cyclin-dependent kinase 2/cyclin E1 (Homo sapiens) (UniProt P24864+P24941)", "experiment": "Inhibition of human CDK2/CycE1 assessed as residual activity at 1 uM using RBER-CHKtide as substrate in presence of 33P-ATP by ProQinase assay relative to control", "format": "protein-complex assay"}, "[2]": {"target": "T1, cGMP-dependent protein kinase 1 (Homo sapiens) (UniProt Q13976)", "T1 sequence (whole entry)": "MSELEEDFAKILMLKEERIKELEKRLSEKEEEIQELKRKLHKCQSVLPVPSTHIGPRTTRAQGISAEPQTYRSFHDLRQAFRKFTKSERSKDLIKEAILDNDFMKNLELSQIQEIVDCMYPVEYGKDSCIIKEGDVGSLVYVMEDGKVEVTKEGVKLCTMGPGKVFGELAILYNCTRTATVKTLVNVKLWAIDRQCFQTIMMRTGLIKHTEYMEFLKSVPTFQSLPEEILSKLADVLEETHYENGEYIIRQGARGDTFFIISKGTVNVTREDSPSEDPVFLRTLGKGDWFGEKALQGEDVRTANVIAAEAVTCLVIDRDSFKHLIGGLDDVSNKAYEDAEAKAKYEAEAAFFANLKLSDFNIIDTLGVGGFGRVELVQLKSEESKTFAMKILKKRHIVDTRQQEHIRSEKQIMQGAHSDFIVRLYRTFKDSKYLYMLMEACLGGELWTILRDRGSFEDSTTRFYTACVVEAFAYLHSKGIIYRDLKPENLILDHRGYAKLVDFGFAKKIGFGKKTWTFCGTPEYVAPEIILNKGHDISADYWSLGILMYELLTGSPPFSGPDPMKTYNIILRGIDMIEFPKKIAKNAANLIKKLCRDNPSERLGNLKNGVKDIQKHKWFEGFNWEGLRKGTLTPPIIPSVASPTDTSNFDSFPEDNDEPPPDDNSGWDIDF", "experiment": "Inhibition of human PRKG1 assessed as residual activity at 1 uM using 3xChocktide-PKC(19-31) as substrate in presence of 33P-ATP by ProQinase assay relative to control"}, "[3]": {"target": "T2, Serine/threonine-protein kinase Nek2 (Homo sapiens) (UniProt P51955)", "T2 sequence (whole entry)": "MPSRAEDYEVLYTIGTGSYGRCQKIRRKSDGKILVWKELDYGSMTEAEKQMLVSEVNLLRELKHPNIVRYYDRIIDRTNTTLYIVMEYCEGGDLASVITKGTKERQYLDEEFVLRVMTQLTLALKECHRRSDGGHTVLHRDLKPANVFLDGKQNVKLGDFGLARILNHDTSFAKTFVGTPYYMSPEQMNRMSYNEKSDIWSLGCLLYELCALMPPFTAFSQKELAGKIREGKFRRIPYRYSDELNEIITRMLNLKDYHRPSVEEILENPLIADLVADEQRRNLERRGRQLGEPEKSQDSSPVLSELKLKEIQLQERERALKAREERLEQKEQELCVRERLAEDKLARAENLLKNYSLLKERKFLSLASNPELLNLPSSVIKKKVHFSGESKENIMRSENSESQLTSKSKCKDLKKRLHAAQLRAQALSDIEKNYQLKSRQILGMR", "experiment": "Inhibition of human NEK2 assessed as residual activity at 1 uM using RB-CTF as substrate in presence of 33P-ATP by ProQinase assay relative to control"}, "[4]": {"target": "T3, Serine/threonine-protein kinase D1 (Homo sapiens) (UniProt Q15139)", "T3 sequence (whole entry)": "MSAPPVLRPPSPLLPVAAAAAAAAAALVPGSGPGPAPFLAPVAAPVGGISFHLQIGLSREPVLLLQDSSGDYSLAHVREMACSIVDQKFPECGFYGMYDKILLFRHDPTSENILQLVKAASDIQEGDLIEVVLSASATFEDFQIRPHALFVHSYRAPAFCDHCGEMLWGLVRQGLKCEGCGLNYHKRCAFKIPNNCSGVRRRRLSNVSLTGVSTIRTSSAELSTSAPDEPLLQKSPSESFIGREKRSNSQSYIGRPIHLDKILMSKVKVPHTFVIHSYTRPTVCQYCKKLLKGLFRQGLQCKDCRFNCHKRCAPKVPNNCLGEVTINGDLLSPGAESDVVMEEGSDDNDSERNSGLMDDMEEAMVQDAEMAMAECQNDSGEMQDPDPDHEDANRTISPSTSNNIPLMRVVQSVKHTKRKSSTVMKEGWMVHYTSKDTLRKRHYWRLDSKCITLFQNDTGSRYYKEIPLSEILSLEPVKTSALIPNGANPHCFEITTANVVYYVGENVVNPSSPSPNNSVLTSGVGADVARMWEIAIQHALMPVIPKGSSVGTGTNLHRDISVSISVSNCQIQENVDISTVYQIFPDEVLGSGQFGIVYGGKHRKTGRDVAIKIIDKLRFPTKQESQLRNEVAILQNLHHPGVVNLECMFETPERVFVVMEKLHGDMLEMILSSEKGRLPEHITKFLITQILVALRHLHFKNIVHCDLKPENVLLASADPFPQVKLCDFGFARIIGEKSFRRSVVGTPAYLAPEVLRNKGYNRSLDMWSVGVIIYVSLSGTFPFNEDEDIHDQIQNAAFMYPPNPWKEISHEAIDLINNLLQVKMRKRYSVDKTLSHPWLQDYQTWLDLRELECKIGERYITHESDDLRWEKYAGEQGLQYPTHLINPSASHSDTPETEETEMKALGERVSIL", "experiment": "Inhibition of human PKCmu assessed as residual activity at 1 uM using RBER-CHKtide as substrate in presence of 33P-ATP by ProQinase assay relative to control"}, "[5]": {"target": "T4, Serine/threonine-protein kinase Chk1 (Homo sapiens) (UniProt O14757)", "T4 sequence (whole entry)": "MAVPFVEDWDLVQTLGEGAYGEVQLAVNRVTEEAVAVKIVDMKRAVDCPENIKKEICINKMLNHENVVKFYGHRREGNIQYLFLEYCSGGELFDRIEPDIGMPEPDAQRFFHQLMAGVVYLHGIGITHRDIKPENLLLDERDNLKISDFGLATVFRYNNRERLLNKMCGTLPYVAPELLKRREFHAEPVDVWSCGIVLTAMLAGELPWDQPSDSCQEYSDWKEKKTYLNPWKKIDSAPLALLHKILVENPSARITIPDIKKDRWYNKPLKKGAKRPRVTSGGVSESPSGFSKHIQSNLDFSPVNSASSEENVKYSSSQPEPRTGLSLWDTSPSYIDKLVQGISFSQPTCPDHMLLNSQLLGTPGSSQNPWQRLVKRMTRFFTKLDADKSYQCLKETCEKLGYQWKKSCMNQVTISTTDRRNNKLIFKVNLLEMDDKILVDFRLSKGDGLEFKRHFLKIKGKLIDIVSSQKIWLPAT", "experiment": "Inhibition of human CHK1 assessed as residual activity at 1 uM using RBER-CHKtide as substrate in presence of 33P-ATP by ProQinase assay relative to control"}, "[6]": {"target": "Cyclin-dependent kinase 19 (Homo sapiens) (UniProt Q9BWU1)", "sequence (Q9BWU1 whole entry)": "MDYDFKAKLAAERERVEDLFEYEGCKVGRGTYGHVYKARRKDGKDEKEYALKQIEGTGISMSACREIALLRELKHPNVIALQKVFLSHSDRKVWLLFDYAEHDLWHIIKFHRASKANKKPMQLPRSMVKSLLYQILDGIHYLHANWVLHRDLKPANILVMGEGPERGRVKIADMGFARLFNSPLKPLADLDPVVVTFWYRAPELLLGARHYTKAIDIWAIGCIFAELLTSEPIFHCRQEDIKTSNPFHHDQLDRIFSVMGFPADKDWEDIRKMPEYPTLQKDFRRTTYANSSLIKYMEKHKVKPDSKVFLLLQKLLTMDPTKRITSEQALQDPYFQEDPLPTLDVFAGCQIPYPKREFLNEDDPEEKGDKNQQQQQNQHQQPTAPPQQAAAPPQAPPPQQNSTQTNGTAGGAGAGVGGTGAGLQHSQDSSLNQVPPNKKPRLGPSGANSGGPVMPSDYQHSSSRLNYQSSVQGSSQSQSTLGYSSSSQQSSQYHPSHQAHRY", "experiment": "Inhibition of CDK11 (unknown origin) assessed as remaining activity at 1 uM by Kinome scan method relative to control"}}, "data": [{"smiles": "O=C1c2ccc(Nc3ccc(F)cc3F)cc2CCc2ccc(OC[C@H](O)CO)cc21", "note": "[Skepinone-L]", "values": [{"measurement": "Activity", "setting": "[1]", "value": 85, "unit": "%"}, {"measurement": "Activity", "setting": "[2]", "value": 110, "unit": "%"}, {"measurement": "Activity", "setting": "[3]", "value": 85, "unit": "%"}, {"measurement": "Activity", "setting": "[4]", "value": 92, "unit": "%"}, {"measurement": "Activity", "setting": "[5]", "value": 94, "unit": "%"}, {"measurement": "Activity", "setting": "[6]", "value": 100, "unit": "%"}]}]}
